# Measurements published in patent US20120258172A1, “Compositions For The Treatment of Central Nervous System Disorders Including Depression Employing Novel Drug Combination Therapy To Reduce Suicidality In Patients” (priority 2010, published 2012).
# How the values were obtained:
# [1] = Phase II trial: serum lithium level; format: in vivo, human; conditions: subgroup n = 11 of 40 on 300 mg lithium carbonate/day + 20 mg citalopram (3 at 0.5, 3 at 0.6, 5 at 0.7); week 4
# Experimental: (§5) All subjects received 20 mg citalopram and were randomized to either 300 mg lithium carbonate/day or placebo for 4 weeks of Double-Blind Treatment. Patients were instructed to take one capsule from the bottle and two tablets from the blister card one time daily, in the morning, orally with food. If the patient was unable to tolerate morning dosing, patient may be switched to evening dosing as long as there was 24 hours minimum between doses.
# [2] = tested on: severely depressed patients with suicidal thoughts and behaviors; assay: Phase II trial: Montgomery-Åsberg Depression Rating Scale (MADRS); format: in vivo, human; conditions: all patients assigned, n = 40
# Excerpt: (§1) Ninety-three patients were screened and 80 subjects were identified who were between the ages of 18 to 75, inclusive, and met the criteria for major depressive disorder (MDD), dysthymia, depression not otherwise specified and/or borderline personality disorder as defined by Diagnostic and Statistical Manual-IV-TR and confirmed by the Mini International Neuropsychological Interview (MINI).
# (§2) Selected subjects scored >15 on the Montgomery-Åsberg Depression Rating Scale and >8 on the Sheehan Suicidality Tracking Scale (S-STS) at Screening and Baseline Visits. […]
# (§3) Efficacy was measured by taking S-STS (Sheehan-Suicidality Tracking Scale (Sheehan, 2009)) scores at Baseline and at each visit for 4 weeks of treatment or until end-of-treatment and measuring the change from baseline in the S-STS total score at week 4. […]
# (§4) All significance tests were two-sided. Statistical significance was assessed at the p≦0.05 level for main effects, and significance at the p≦0.10 level was considered a trend indicating efficacy. […]
# [3] = tested on: severely depressed patients with suicidal thoughts and behaviors; assay: Phase II trial: adverse events; format: in vivo, human
# Experimental: Eligible subjects were evaluated for safety parameters prior to and throughout the screening through a variety of methods including an ECG, physical exam, vital sign taking and clinical laboratory testing. A standard 12-lead ECG was performed at Screening (Visit 1) and at Week 4 (Visit 6 or Early Termination Visit). Physical examinations included determination of general appearance, mental status, skin, neck (including thyroid), eyes, ears, nose, throat, heart, lungs, abdomen, lymph nodes, musculoskeletal system, and nervous system. Vital signs included respiratory rate, radial pulse and systolic and diastolic blood pressures. Vital signs were collected in the seated position. Clinical Laboratory Testing Parameters included a Complete Metabolic Panel (Na, K, Cl, CO2, Glu, BUN, Cr, Ca, TP, Alb, TBili, AP, AST, ALT), Hematology CBC (Hgb, Hct, RBC, WBC, Pit, Diff) and TSH (w/reflex T-4). Serum HCG is performed for all females, and Urine Analysis is completed for all subjects.
# Efficacy was measured by taking S-STS (Sheehan-Suicidality Tracking Scale (Sheehan, 2009)) scores at Baseline and at each visit for 4 weeks of treatment or until end-of-treatment and measuring the change from baseline in the S-STS total score at week 4. Secondary efficacy variables were the BHS (Beck Hopelessness Scale (Beck, Steer, 1988)), BSS (Beck Scale for Suicide Ideation (Beck and Steer, 1991)), C-SSRS (Columbia Suicide Severity Rating Scale (Posner et al., 2009) and CGI (Clinical Global Impression Study (Guy, 1976)) changes at week 4. Safety measures were collected and evaluated throughout the trial. These included Adverse Events (AEs), laboratory parameters, physical examinations, ECGs and vital signs and weight measurements. Adverse events were any untoward medical event occurring in a subject administered study drug, irrespective of whether it has a causal relationship to the study drug. An adverse event could therefore be any unfavorable or unintended sign (including abnormal laboratory findings, for example), symptom, or disorder temporarily associated with study drug, whether or not considered related to the study drug. Adverse Events among the 80 participants were as follows: […]
# [4] = tested on: severely depressed patients with suicidal thoughts and behaviors; assay: Phase II trial: Beck Scale for Suicide Ideation (BSS); format: in vivo, human; conditions: n = 40 per arm
# Excerpt: as §1, §2, §3, §4
# [5] = tested on: severely depressed patients with suicidal thoughts and behaviors; assay: Phase II trial: Clinical Global Impression (CGI) severity; format: in vivo, human; conditions: n = 40 per arm
# Excerpt: as §1, §2, §3, §4
# [6] = tested on: severely depressed patients with suicidal thoughts and behaviors; conditions: of 40 patients in the arm
# Experimental: as §5
# Subjects were considered to have completed the study if they completed all of the visits.
# [7] = tested on: severely depressed patients with suicidal thoughts and behaviors; assay: Phase II trial: Sheehan Suicidality Tracking Scale (S-STS); format: in vivo, human
# Excerpt: as §1
# Selected subjects scored >15 on the Montgomery-Åsberg Depression Rating Scale and >8 on the Sheehan Suicidality Tracking Scale (S-STS) at Screening and Baseline Visits. Subjects were excluded if they had current, unstable and significant medical conditions (a history of unstable Thyroid disorders, a history of seizure disorders, tumors or other central nervous system (CNS) condition that predisposes the patient to risk of seizure), pregnant or lactating, had any abnormal clinical laboratory test results, or ECG results which were judged by the investigator as clinically significant, a history of intolerance or hypersensitivity to citalopram, other SSRIs, or lithium, a history or current diagnosis of bipolar mood disorder, psychosis, schizophrenia or dementia, were currently involved in another clinical trial or had participated in another clinical trial less than thirty days prior, or had current or prior treatment with citalopram or escitalopram. Psychotropic medications (anti-psychotics, anti-depressants, and mood stabilizers) were excluded during the treatment phase and required a twenty-four hour washout period prior to the first dose of study medication. Diuretics, analgesics, benzodiazepines and opiates were used with caution.
# Efficacy was measured by taking S-STS (Sheehan-Suicidality Tracking Scale (Sheehan, 2009)) scores at Baseline and at each visit for 4 weeks of treatment or until end-of-treatment and measuring the change from baseline in the S-STS total score at week 4. Secondary efficacy variables were the BHS (Beck Hopelessness Scale (Beck, Steer, 1988)), BSS (Beck Scale for Suicide Ideation (Beck and Steer, 1991)), C-SSRS (Columbia Suicide Severity Rating Scale (Posner et al., 2009) and CGI (Clinical Global Impression Study (Guy, 1976)) changes at week 4. Safety measures were collected and evaluated throughout the trial. These included Adverse Events (AEs), laboratory parameters, physical examinations, ECGs and vital signs and weight measurements. Adverse events were any untoward medical event occurring in a subject administered study drug, irrespective of whether it has a causal relationship to the study drug. An adverse event could therefore be any unfavorable or unintended sign (including abnormal laboratory findings, for example), symptom, or disorder temporarily associated with study drug, whether or not considered related to the study drug. Adverse Events among the 80 participants were as follows:
# All significance tests were two-sided. Statistical significance was assessed at the p≦0.05 level for main effects, and significance at the p≦0.10 level was considered a trend indicating efficacy. Missing values were handled using the last observation carried forward (LOCF) technique. The primary analysis population for inference was the intention-to-treat (ITT) population.
# [8] = tested on: severely depressed patients with suicidal thoughts and behaviors; assay: Phase II trial: Beck Hopelessness Scale (BHS); format: in vivo, human; conditions: n = 40 per arm
# Excerpt: as §1, §2, §3, §4
smiles,measurement,setting,value
[Li] [lithium],serum lithium level,[1],≥ 0.5 mEq/L
"CN(C)CCCC1(c2ccc(F)cc2)OCc2cc(C#N)ccc21 (stereo not shown) [Citalopram + Placebo, citalopram]",Mean Total MADRS Change Score,[2],9.8
same,Adverse Events per Patient,"[3]; all patients assigned, n = 40",1.0
same,"Anxiousness, % of patients","[3]; n = 40 per arm, 4 weeks",3%
same,"Anxiousness, number of patients","[3]; n = 40 per arm, 4 weeks",1
same,"Common Cold, % of patients","[3]; n = 40 per arm, 4 weeks",5%
same,"Common Cold, number of patients","[3]; n = 40 per arm, 4 weeks",2
same,"Decreased Appetite, % of patients","[3]; n = 40 per arm, 4 weeks",5%
same,"Decreased Appetite, number of patients","[3]; n = 40 per arm, 4 weeks",2
same,"Dizziness, % of patients","[3]; n = 40 per arm, 4 weeks",5%
same,"Dizziness, number of patients","[3]; n = 40 per arm, 4 weeks",2
same,"Headaches, % of patients","[3]; n = 40 per arm, 4 weeks",1 (1%)
same,"Headaches, number of patients","[3]; n = 40 per arm, 4 weeks",1 (1%)
same,"Nausea, % of patients","[3]; n = 40 per arm, 4 weeks",3%
same,"Nausea, number of patients","[3]; n = 40 per arm, 4 weeks",5
same,"Restlessness, % of patients","[3]; n = 40 per arm, 4 weeks",5%
same,"Restlessness, number of patients","[3]; n = 40 per arm, 4 weeks",2
same,"Somnolence, % of patients","[3]; n = 40 per arm, 4 weeks",18%
same,"Somnolence, number of patients","[3]; n = 40 per arm, 4 weeks",7
same,Total Events (most frequent and serious adverse events),"[3]; n = 40 per arm, 4 weeks",23
same,"Vomiting, % of patients","[3]; n = 40 per arm, 4 weeks",3%
same,"Vomiting, number of patients","[3]; n = 40 per arm, 4 weeks",1
same,"BSS, Mean (SD)",[4]; Baseline,16.2 (6.7)
same,"BSS, Mean (SD)","[4]; End of Study (week 4, LOCF)",9.1 (8.2)
same,"CGI (Severity), Mean (SD)",[5]; Baseline,4.9 (0.8)
same,"CGI (Severity), Mean (SD)","[5]; End of Study (week 4, LOCF)",3.3 (1.8)
same,patients who discontinued participation because of Adverse Event,[6],1
same,# With Full S-STS Symptom Remission,"[7]; all patients assigned, n = 40",6
same,# With No change in S-STS Symptoms,"[7]; all patients assigned, n = 40",12
same,# with Worsening of S-STS Symptoms,"[7]; all patients assigned, n = 40",2
same,% With Full S-STS Symptom Remission,"[7]; all patients assigned, n = 40",(15%)
same,% With No change in S-STS Symptoms,"[7]; all patients assigned, n = 40",(30%)
same,% with Worsening of S-STS Symptoms,"[7]; all patients assigned, n = 40",(5%)
same,Mean Total S-STS Change Score,"[7]; all patients assigned, n = 40",4.8
same,change in the mean total S-STS,[7]; among the 64 completers,5.4±5.3
same,"BHS, Mean (SD)",[8]; Baseline,16.3 (3.4)
same,"BHS, Mean (SD)","[8]; End of Study (week 4, LOCF)",11.8 (5.4)
